One data set has as its target EGFR Δ19del/T790M/C797S (Homo sapiens, UniProt P00533, T790M/C797S, form not given). Briefly: EGFR Δ19del/T790M/C797S kinase test (mobility variation analysis, Caliper EZ Reader). The format is biochemical. The following applies: kinase inhibition, top concentration 300 nM. The procedure: Mobility variation analysis was performed to determine the affinity of the compound for EGFRΔ19del/T790M/C797S. The enzymatic reaction scheme is as follows:
1. Prepare 1*kinase buffer as follows.
2. Prepare compound concentration gradient: The test compound was tested at concentration of 300 nM, diluted with 100% DMSO solution in a 96-well plate to 100-fold final concentration, and then diluted to 3-fold concentration with Precision.10. Compound at each concentration was further diluted to 5-fold final concentration of intermediate dilution.
3. Add 5 μL of each prepared intermediate dilution compounds to the compound wells of 384-well plate respectively, and test the repeated wells of each concentration; add 5 μL of 5% DMSO into the negative control well and the positive control well respectively.
4. Prepare 2.5-fold final concentration of kinase solution with 1×Kinase buffer.
5. Add 10 μL of 2.5-fold final concentration of kinase solution to the compound well and the positive control well; add 10 μL of 1×Kinase buffer to the negative control well.
6. Centrifuge at 1000 rpm for 30 s, shake the reaction plate for well mixing, and then incubate at room temperature for 10 minutes.
7. Prepare a mixture of ATP and Kinase substrate (5-FAM-EEPLYWSFPAKKK-CONH2) at 2.5-fold final concentration with 1×Kinase buffer.
8. Add 10 μL mixture of ATP and substrate at 2.5-fold final concentration to start reaction.
9. Centrifuge the 384-well plate at 1000 rpm for 30 s, shake it well and then incubate it at room temperature for corresponding time.
10. Add 30 μL of stop detection solution to stop the kinase reaction, centrifuge at 1000 rpm for 30 s, and shake it well.
11. Read conversion rate with Caliper EZ Reader.
Convert the conversion rate to inhibition rate:
inhibition %=(max−conversion % sample)/(max−min)*100.
“max”: Mean value of negative control wells; “min”: Mean value of positive control wells; conversion % sample: Sample conversion reading.
GraphPad Prism 5 was used for % inhibition curve fitting to obtain the IC50 value.
The calculation formula: Y=inhibition %_min+(inhibition %_max−inhibition %_min)/(1+(IC50/X)^slope). wherein, Y is inhibition %; X is concentration of compound to be tested.

In data set [1] the target is Ba/F3-Δ19del/T790M/C797S cells (Homo sapiens, UniProt P00533, T790M/C797S, cells depend on it, form not given). Briefly: Ba/F3-Δ19del/T790M/C797S cell proliferation assay (CellTiter Glo). It counts as cell-based. The following applies: 72 hours, CTG luminescence, read-out: BaF3 Δ19del/T790M/C797S IC50. The procedure:
(§1) RPMI 1640, 10% FBS and 1% PS; DMEM, 10% FBS and 1% PS
(§2) a) The medium was preheated in a 37° C. water bath in advance.
(§3) b) Remove the cryogenic vials from the liquid nitrogen tank, quickly put it into a 37° C. water bath, and completely melt it in 1 min.
(§4) c) Transfer the cell suspension to a 15 mL centrifuge tube containing 8 mL of medium, and centrifuge at 1000 rpm for 5 min.
(§5) d) Discard the supernatant, resuspend the cells in 1 mL of culture medium, transfer it to a 75 cm^2 flask containing 15 mL of culture medium, and culture the cells in a incubator with 5% CO2 at 37° C.
(§6) b) Collect the cells in a 15 mL centrifuge tube and centrifuge at 1000 rpm for 5 min. Discard the supernatant, count to make the cell density at 1×10^4 cells/mL, and then place it in a incubator with 5% CO2 at 37° C.
(§7) a) Dilute the test compound (20 mM stock solution) to 10 mM with 100% DMSO as the starting concentration, and then serially dilute 3 times with a “9+0” concentration in 96-well dilution plate (Cat #P-05525, Labcyte);
(§8) b) Dilute compound solution thereof to 1:100 in medium to prepare 10-fold working solution.
(§9) a) Centrifuge the growth cells in logarithmic phase at 1000 rpm for 5 minutes, resuspend the cells in culture medium, and then count the cells;
(§10) b) Inoculate the cells into a 96-well cell culture plate with a density of 2000 cells/well;
(§11) a) 15 μl of compounds prepared at step 2 were added to cell plate, the final concentrations were […], 370.4, 123.5, 41.2, 13.7, 4.6, 1.5 and 0 nM, and the final concentration of DMSO was 0.1%. The blank control well was a culture medium (0.1% DMSO);
(§12) b) Incubate cells in an incubator for another 72 hours;
(§13) a) Take out the 96-well cell culture plate and add 50 μl of CTG reagent (CellTiter Glo kit, promega, Cat#G7573);
(§14) b) Shake the plate for 2 minutes and let cool at room temperature for 10 minutes;
(§15) c) Read luminous signal value with PerkinElmer reader.
(§16) The data were analyzed by GraphPad Prism 6.0 software to obtain the fitting curve of compound activity.
(§17) Fitting compound IC50 from nonlinear regression equation:
(§18) Y=Min+(Max−Min)/(1+10^((Log IC50−X)*slope));
(§19) X: Logarithm of compound concentration; Y: luminous signal value.

The subject of another data set is A431 wild-type cell line. Briefly: A431 wild-type cell proliferation assay (CellTiter Glo). The format is cell-based. The following applies: Homo sapiens, A-431, 72 hours, CTG luminescence. The procedure:
as §1, §2, §3, §4, §5, §6, §7, §8, §9, §10, §11, §12, §13, §14, §15, §16, §17, §18, §19

A short description of data set [2]: Pharmacokinetic experiment in rats, oral administration. The format is in vivo. The following applies: Sprague-Dawley (SD), rat, 5 mg/kg, male SD rats, 5 mpk, plasma. The procedure: Test 3 Pharmacokinetic Experiment
Male SD rats (3 rats in each group) were administered orally, and fasted overnight from at least 12 hours before administration to 4 hours after administration before the experiment. Blood was taken from the orbital vein. The time points of blood collection for oral administration were: 15 min, 30 min, 1 hr, 2 hr, 4 hr, 7 hr and 24 hr, the dosage of administration was 5 mpk, and the blood collection volume was 300 μL. After anticoagulant treatment with 2.0% EDTA, the blood was centrifuged at 4000 rpm for 5 min, and then about 100 μL was taken and placed for testing at −20° C. Plasma samples were analyzed by liquid chromatography tandem mass spectrometry (LC-MS/MS). The plasma concentration-time data of individual animals were analyzed by the non-compartment model of WinNonlin (V4.1, Pharsight) software, and the pharmacokinetic parameters of the compounds tested were calculated.

Sequence of EGFR Δ19del/T790M/C797S (P00533 with tags, fused parts or gaps DEL746-750/T790M/C797S, form open): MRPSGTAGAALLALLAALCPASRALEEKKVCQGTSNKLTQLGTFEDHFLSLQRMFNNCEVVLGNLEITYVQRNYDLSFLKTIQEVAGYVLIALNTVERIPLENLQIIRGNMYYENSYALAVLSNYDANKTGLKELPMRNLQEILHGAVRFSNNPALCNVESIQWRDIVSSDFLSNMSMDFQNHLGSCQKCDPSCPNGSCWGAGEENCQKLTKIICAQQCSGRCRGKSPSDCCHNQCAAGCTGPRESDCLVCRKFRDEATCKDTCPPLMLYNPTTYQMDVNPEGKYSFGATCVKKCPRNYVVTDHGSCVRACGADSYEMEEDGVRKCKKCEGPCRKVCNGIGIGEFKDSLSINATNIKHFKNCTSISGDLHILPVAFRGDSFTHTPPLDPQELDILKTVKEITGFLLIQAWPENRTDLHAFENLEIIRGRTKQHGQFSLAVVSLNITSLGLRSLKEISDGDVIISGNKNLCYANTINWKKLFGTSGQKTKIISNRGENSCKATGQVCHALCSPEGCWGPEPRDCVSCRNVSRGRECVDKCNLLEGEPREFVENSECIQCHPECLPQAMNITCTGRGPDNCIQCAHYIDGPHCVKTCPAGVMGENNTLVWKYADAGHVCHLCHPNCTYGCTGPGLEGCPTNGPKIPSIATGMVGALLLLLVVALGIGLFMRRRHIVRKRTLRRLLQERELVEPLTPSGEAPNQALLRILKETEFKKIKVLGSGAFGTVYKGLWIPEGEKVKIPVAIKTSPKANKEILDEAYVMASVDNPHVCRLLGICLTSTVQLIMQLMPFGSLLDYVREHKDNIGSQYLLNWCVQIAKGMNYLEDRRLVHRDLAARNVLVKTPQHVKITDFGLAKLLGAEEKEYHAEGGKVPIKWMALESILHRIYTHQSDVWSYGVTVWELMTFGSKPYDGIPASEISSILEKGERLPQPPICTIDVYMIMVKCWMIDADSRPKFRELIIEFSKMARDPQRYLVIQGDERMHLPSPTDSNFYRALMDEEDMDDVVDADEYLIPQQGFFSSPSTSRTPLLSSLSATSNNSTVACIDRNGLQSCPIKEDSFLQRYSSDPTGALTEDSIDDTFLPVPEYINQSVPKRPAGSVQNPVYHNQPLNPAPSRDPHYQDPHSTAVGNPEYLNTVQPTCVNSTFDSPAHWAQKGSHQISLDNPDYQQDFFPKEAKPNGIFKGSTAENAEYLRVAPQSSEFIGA
Sequence of Ba/F3-Δ19del/T790M/C797S cells (P00533 with tags, fused parts or gaps DEL746-750/T790M/C797S, form open): as above

On to `COc1cc(N2CCC(N3CCN(C)CC3)CC2)ccc1Nc1ncc(Cl)c(Nc2ccc(C)cc2P(C)(C)=O)n1` [Control example 1, reference compound], for which the IC50 at EGFR Δ19del/T790M/C797S was 2.7 nM. The GI50 in data set [1] was 49.9 nM.

Take `CCc1cc(Nc2ncc(Br)c(Nc3ccc(C4CCOCC4)cc3P(C)(C)=O)n2)c(OC)cc1N1CCC(N2CCN(C)CC2)CC1` [Compound 6, (2-((5-Bromo-2-((5-ethyl-2-methoxy-4-(4-(4-methylpiperazin-1-yl)piperidin-1-yl)phenyl)amino)pyrimidin-4-yl)amino)-5-(tetrahydro-2H-pyran-4-yl)phenyl)dimethylphosphine oxide]: the IC50 on EGFR Δ19del/T790M/C797S was 0.7 nM; with A431 wild-type cell line it was 674 nM. In data set [1], the GI50 stood at 15.6 nM.

`COc1cc(N2CCC(N3CCN(C)CC3)CC2)c(-c2ccn(C)c2)cc1Nc1ncc(Br)c(Nc2ccc(C3CC3)cc2P(C)(C)=O)n1` [Compound 9, (2-((5-Bromo-2-((2-methoxy-5-(1-methyl-1H-pyrrol-3-yl)-4-(4-(4-methylpiperazine-1-yl)piperidin-1-yl)phenyl)amino)pyrimidin-4-yl)-amino)-5-cyclopropylphenyl)dimethylphosphine oxide]: the concentration for half-maximal inhibition (IC50) turned out to be 0.3 nM on EGFR Δ19del/T790M/C797S and 604 nM with A431 wild-type cell line. The GI50 in data set [1] amounted to 5.2 nM.

Regarding `CCn1cc(-c2cc(Nc3ncc(OC)c(Nc4ccc(C5CC5)cc4P(C)(C)=O)n3)c(OC)cc2N2CCC(N3CCN(C)CC3)CC2)cn1` [Compound 3, (5-Cyclopropyl-2-((2-((5-(1-ethyl-1H-pyrazol-4-yl)-2-methoxy-4-(4-(4-methylpiperazin-1-yl)piperidin-1-yl)phenyl)amino)-5-methoxypyrimidin-4-yl)amino)phenyl)dimethylphosphine oxide], the results for the IC50 against EGFR Δ19del/T790M/C797S and in the data set on A431 wild-type cell line were 0.4 nM and 830 nM, respectively. Moreover, in data set [1], the GI50 stood at 55.4 nM.

In the case of `COc1cc(N2CCC(N3CCN(C)CC3)CC2)ccc1Nc1ncc(Cl)c(Nc2ccc(C3CC3)cc2P(C)(C)=O)n1` [Compound 4], half-maximal inhibition on EGFR Δ19del/T790M/C797S (IC50) was put at 1.2 nM.

In data set [2], `CCc1cc(Nc2ncc(Br)c(Nc3ccc(C4CC4)cc3P(C)(C)=O)n2)c(OC)cc1N1CCC(N2CCN(C)CC2)CC1` [Compound 1, (2-((5-Bromo-2-((5-ethyl-2-methoxy-4-(4-(4-methylpiperazin-1-yl)piperidin-1-yl)phenyl)amino)pyrimidin-4-yl)amino)-5-cyclopropylphenyl)dimethylphosphine oxide] returned an area under the curve AUC(0-t) of 32900 ng·h/mL and a Cmax of 2100 ng/mL. Besides, the half-life in data set [2] (read-out: t½ (converted)) is 9.1 h. For the same compound, the IC50 on EGFR Δ19del/T790M/C797S worked out at 0.3 nM. In addition, the GI50 in data set [1] turned out to be 1.2 nM. The compound further yielded a half-maximal inhibitory concentration (IC50) in the data set on A431 wild-type cell line of 682 nM.

In the case of `CCc1cc(Nc2ncc(OC)c(Nc3ccc(C4CC4)cc3P(C)(C)=O)n2)c(OC)cc1N1CCC(N2CCN(C)CC2)CC1` [Compound 5], on EGFR Δ19del/T790M/C797S, the concentration for half-maximal inhibition (IC50) is 1.6 nM. Moreover, the GI50 in data set [1] stood at 302 nM.

For `CCc1cc(Nc2ncc(Br)c(Nc3ccc(N4CCOCC4)cc3P(C)(C)=O)n2)c(OC)cc1N1CCC(N2CCN(C)CC2)CC1` [Compound 8], the 50% inhibitory concentration (IC50) against EGFR Δ19del/T790M/C797S was 0.3 nM; with A431 wild-type cell line, 886 nM. Besides, the GI50 in data set [1] was found to be 30.4 nM.

Take `CCc1cc(Nc2ncc(Cl)c(Nc3ccc(C4CCCC4)cc3P(C)(C)=O)n2)c(OC)cc1N1CCC(N2CCN(C)CC2)CC1` [Compound 7, (2-((5-Chloro-2-((5-ethyl-2-methoxy-4-(4-(4-methylpiperazin-1-yl)piperidin-1-yl)phenyl)amino)pyrimidin-4-yl)amino)-5-cyclopentylphenyl)dimethylphosphine oxide]: the IC50 against EGFR Δ19del/T790M/C797S was 1.1 nM; with A431 wild-type cell line, 1400 nM. The GI50 in data set [1] stood at 38.3 nM.

On to `COc1cc(N2CCC(N3CCN(C)CC3)CC2)c(C)cc1Nc1ncc(Br)c(Nc2ccc(C3CC3)cc2P(C)(C)=O)n1` [Compound 10, (2-((5-Bromo-2-((2-methoxy-5-methyl-4-(4-(4-methylpiperazin-1-yl)piperidin-1-yl)phenyl)Amino)pyrimidin-4-yl)amino)-5-cyclopropylphenyl)dimethylphosphine oxide], for which the half-inhibitory concentration (IC50) against EGFR Δ19del/T790M/C797S was 0.3 nM; with A431 wild-type cell line, 543 nM. The GI50 in data set [1] stood at 9.7 nM.

For the compound `CCn1cc(-c2cc(Nc3ncc(Br)c(Nc4ccc(C5CC5)cc4P(C)(C)=O)n3)c(OC)cc2N2CCC(N3CCN(C)CC3)CC2)cn1` [Compound 2], the figures for the IC50 against EGFR Δ19del/T790M/C797S and in the data set on A431 wild-type cell line were 0.4 nM and 268 nM, respectively. For the same compound, the GI50 in data set [1] turned out to be 7.2 nM.

These data come from patent US20230133169A1, “EGFR INHIBITOR, COMPOSITION, AND METHOD FOR PREPARATION THEREOF” (BETTA PHARMACEUTICALS CO., LTD, priority 2019, published 2023).
